According to ChEMBL document CHEMBL3885861, “Open TG-GATES”:

Species: Rattus norvegicus
Assay: Open TG-GATES - Regimen: Daily Repeat
Format: toxicity, organism-based, Sprague-Dawley
Design: regimen Daily Repeat, gender Male, age 6 weeks
Conditions: in vivo, po, 300 mg/kg, route gavage, dose level Middle; for APTT / Bas / Eos / Fbg / Hb / Ht / Lym / MCH / MCHC / MCV / Mono / Neu / PT / Plat / RBC / Ret / WBC: tissue Blood; for KIDNEY_L / KIDNEY_R / KIDNEY_TOTAL: tissue Kidney; for LIVER: tissue Liver; for A/G / ALP / ALT / AST / BUN / CRE / Ca / Cl / DBIL / GLC / IP / K / LDH / Na / PL / RALB / TBIL / TC / TG / TP / gamma-GTP: tissue Plasma

SMILES: COC1=CC(=O)C[C@@H](C)[C@]12Oc1c(Cl)c(OC)cc(OC)c1C2=O [GRISEOFULVIN]
- TERMINAL_BW (72 h, time 3 day): 228.3 g
- APTT (72 h, time 3 day): 19.9 s
- Bas (72 h, time 3 day): 0%
- Eos (72 h, time 3 day): 1%
- Fbg (72 h, time 3 day): 220 mg/dL
- Hb (72 h, time 3 day): 13.6 g/dL
- Ht (72 h, time 3 day): 40.4%
- Lym (72 h, time 3 day): 73.2%
- MCH (72 h, time 3 day): 20.8 pg
- MCHC (72 h, time 3 day): 33.5%
- MCV (72 h, time 3 day): 62.1 fL
- Mono (72 h, time 3 day): 3%
- Neu (72 h, time 3 day): 22.2%
- PT (72 h, time 3 day): 12.5 s
- Plat (72 h, time 3 day): 118.4 x10_4/uL
- RBC (72 h, time 3 day): 651.8 x10_4/ul
- Ret (72 h, time 3 day): 6.7%
- WBC (72 h, time 3 day): 99.2 x10_2/uL
- KIDNEY_L (72 h, time 3 day): 0.9 g
- KIDNEY_R (72 h, time 3 day): 1 g
- KIDNEY_TOTAL (72 h, time 3 day): 1.9 g
- LIVER (72 h, time 3 day): 11.3 g
- A/G (72 h, time 3 day): 1.6
- ALP (72 h, time 3 day): 836.2 IU/L
- ALT (72 h, time 3 day): 44.4 IU/L
- AST (72 h, time 3 day): 68.2 IU/L
- BUN (72 h, time 3 day): 13.8 mg/dL
- CRE (72 h, time 3 day): 0.4 mg/dL
- Ca (72 h, time 3 day): 10.8 mg/dL
- Cl (72 h, time 3 day): 104.4 meq/L
- DBIL (72 h, time 3 day): 0.084 mg/dL
- GLC (72 h, time 3 day): 218.2 mg/dL
- IP (72 h, time 3 day): 7.6 mg/dL
- K (72 h, time 3 day): 3.8 meq/L
- LDH (72 h, time 3 day): 160.4 IU/L
- Na (72 h, time 3 day): 141.2 meq/L
- PL (72 h, time 3 day): 141.6 mg/dL
- RALB (72 h, time 3 day): 3.4 g/dL
- TBIL (72 h, time 3 day): 0.1 mg/dL
- TC (72 h, time 3 day): 80.4 mg/dL
- TG (72 h, time 3 day): 69 mg/dL
- TP (72 h, time 3 day): 5.6 g/dL
- gamma-GTP (72 h, time 3 day): 1.2 IU/L
- TERMINAL_BW ([…], time 7 day): 261.2 g
- TERMINAL_BW ([…], time 14 day): 309.7 g
- TERMINAL_BW ([…], time 28 day): 406.6 g
- APTT ([…], time 7 day): 19 s
- Bas ([…], time 7 day): 0%
- Eos ([…], time 7 day): 0.6%
- Fbg ([…], time 7 day): 224 mg/dL
- Hb ([…], time 7 day): 13.7 g/dL
- Ht ([…], time 7 day): 40.7%
- Lym ([…], time 7 day): 76.6%
- MCH ([…], time 7 day): 21.2 pg
- MCHC ([…], time 7 day): 33.7%
- MCV ([…], time 7 day): 62.9 fL
- Mono ([…], time 7 day): 3%
- Neu ([…], time 7 day): 18.6%
- PT ([…], time 7 day): 12.3 s
- Plat ([…], time 7 day): 140.6 x10_4/uL
- RBC ([…], time 7 day): 646.8 x10_4/ul
- Ret ([…], time 7 day): 5.7%
- WBC ([…], time 7 day): 118 x10_2/uL
- APTT ([…], time 14 day): 19.1 s
- Bas ([…], time 14 day): 0%
- Eos ([…], time 14 day): 1%
- Fbg ([…], time 14 day): 228.6 mg/dL
- Hb ([…], time 14 day): 14.2 g/dL
- Ht ([…], time 14 day): 42.2%
- Lym ([…], time 14 day): 82%
- MCH ([…], time 14 day): 20.9 pg
- MCHC ([…], time 14 day): 33.7%
- MCV ([…], time 14 day): 61.9 fL
- Mono ([…], time 14 day): 2.8%
- Neu ([…], time 14 day): 13.6%
- PT ([…], time 14 day): 12.2 s
- Plat ([…], time 14 day): 115.6 x10_4/uL
- RBC ([…], time 14 day): 682 x10_4/ul
- Ret ([…], time 14 day): 2.8%
- WBC ([…], time 14 day): 104.2 x10_2/uL
- APTT ([…], time 28 day): 23.1 s
- Bas ([…], time 28 day): 0%
- Eos ([…], time 28 day): 1%
- Fbg ([…], time 28 day): 215.8 mg/dL
- Hb ([…], time 28 day): 15.2 g/dL
- Ht ([…], time 28 day): 44.7%
- Lym ([…], time 28 day): 81%
- MCH ([…], time 28 day): 19.9 pg
- MCHC ([…], time 28 day): 34%
- MCV ([…], time 28 day): 58.8 fL
- Mono ([…], time 28 day): 3.2%
- Neu ([…], time 28 day): 14.4%
- PT ([…], time 28 day): 12.6 s
- Plat ([…], time 28 day): 108.5 x10_4/uL
- RBC ([…], time 28 day): 761 x10_4/ul
- Ret ([…], time 28 day): 2.7%
- WBC ([…], time 28 day): 136.8 x10_2/uL
- KIDNEY_L ([…], time 7 day): 1.1 g
- KIDNEY_R ([…], time 7 day): 1.1 g
- KIDNEY_TOTAL ([…], time 7 day): 2.2 g
- KIDNEY_L ([…], time 14 day): 1.3 g
- KIDNEY_R ([…], time 14 day): 1.3 g
- KIDNEY_TOTAL ([…], time 14 day): 2.6 g
- KIDNEY_L ([…], time 28 day): 1.4 g
- KIDNEY_R ([…], time 28 day): 1.3 g
- KIDNEY_TOTAL ([…], time 28 day): 2.7 g
- LIVER ([…], time 7 day): 12.8 g
- LIVER ([…], time 14 day): 14.8 g
- LIVER ([…], time 28 day): 17.3 g
- A/G ([…], time 7 day): 1.4
- ALP ([…], time 7 day): 848 IU/L
- ALT ([…], time 7 day): 35.6 IU/L
- AST ([…], time 7 day): 58.4 IU/L
- BUN ([…], time 7 day): 13.4 mg/dL
- CRE ([…], time 7 day): 0.4 mg/dL
- Ca ([…], time 7 day): 10.7 mg/dL
- Cl ([…], time 7 day): 104 meq/L
- DBIL ([…], time 7 day): 0.08 mg/dL
- GLC ([…], time 7 day): 207.6 mg/dL
- IP ([…], time 7 day): 7.5 mg/dL
- K ([…], time 7 day): 3.7 meq/L
- LDH ([…], time 7 day): 136.6 IU/L
- Na ([…], time 7 day): 142.6 meq/L
- PL ([…], time 7 day): 122.8 mg/dL
- RALB ([…], time 7 day): 3.4 g/dL
- TBIL ([…], time 7 day): 0.1 mg/dL
- TC ([…], time 7 day): 70.4 mg/dL
- TG ([…], time 7 day): 60 mg/dL
- TP ([…], time 7 day): 5.8 g/dL
- gamma-GTP ([…], time 7 day): 0.8 IU/L
- A/G ([…], time 14 day): 1.5
- ALP ([…], time 14 day): 784.6 IU/L
- ALT ([…], time 14 day): 32 IU/L
- AST ([…], time 14 day): 51.4 IU/L
- BUN ([…], time 14 day): 14.8 mg/dL
- CRE ([…], time 14 day): 0.6 mg/dL
- Ca ([…], time 14 day): 10.6 mg/dL
- Cl ([…], time 14 day): 102.8 meq/L
- DBIL ([…], time 14 day): 0.078 mg/dL
- GLC ([…], time 14 day): 221.6 mg/dL
- IP ([…], time 14 day): 7.5 mg/dL
- K ([…], time 14 day): 4.3 meq/L
- LDH ([…], time 14 day): 112.2 IU/L
- Na ([…], time 14 day): 140.2 meq/L
- PL ([…], time 14 day): 142.6 mg/dL
- RALB ([…], time 14 day): 3.5 g/dL
- TBIL ([…], time 14 day): 0.1 mg/dL
- TC ([…], time 14 day): 82.2 mg/dL
- TG ([…], time 14 day): 59.6 mg/dL
- TP ([…], time 14 day): 5.9 g/dL
- gamma-GTP ([…], time 14 day): 1 IU/L
- A/G ([…], time 28 day): 1.3
- ALP ([…], time 28 day): 565.4 IU/L
- ALT ([…], time 28 day): 34.8 IU/L
- AST ([…], time 28 day): 55.2 IU/L
- BUN ([…], time 28 day): 15.6 mg/dL
- CRE ([…], time 28 day): 0.5 mg/dL
- Ca ([…], time 28 day): 10.6 mg/dL
- Cl ([…], time 28 day): 103 meq/L
- DBIL ([…], time 28 day): 0.07 mg/dL
- GLC ([…], time 28 day): 237.6 mg/dL
- IP ([…], time 28 day): 7.3 mg/dL
- K ([…], time 28 day): 3.7 meq/L
- LDH ([…], time 28 day): 159.8 IU/L
- Na ([…], time 28 day): 140.6 meq/L
- PL ([…], time 28 day): 125.8 mg/dL
- RALB ([…], time 28 day): 3.4 g/dL
- TBIL ([…], time 28 day): 0.1 mg/dL
- TC ([…], time 28 day): 70.4 mg/dL
- TG ([…], time 28 day): 83 mg/dL
- TP ([…], time 28 day): 6 g/dL
- gamma-GTP ([…], time 28 day): 1 IU/L
